Results taken from US8618107B2 (Gilead Connecticut, Inc., priority 2010, dated 2013).

What was measured:
[1] = test system: CD69 on CD20 positive cells in human whole blood stimulated by anti-IgM; experiment: CD69 Whole Blood Assay; assay type: cell-based; conditions: anti-human IgM stimulation, 20 hours
Description: Human blood is obtained from healthy volunteers, with the following restrictions: 1 week drug-free, non-smokers. Blood (approximately 20 mls to test 8 compounds) is collected by venipuncture into Vacutainer® (Becton, Dickinson and Co.) tubes with sodium heparin.
Solutions of Formula I compounds at 10 mM in DMSO are diluted 1:10 in 100% DMSO, then are diluted by three-fold serial dilutions in 100% DMSO for a ten point dose-response curve. The compounds are further diluted 1:10 in PBS and then an aliquot of 5.5 μl of each compound is added in duplicate to a 2 ml 96-well plate; 5.5 μl of 10% DMSO in PBS is added as control and no-stimulus wells. Human whole blood—HWB (100 μl) is added to each well. After mixing the plates are incubated at 37° C., 5% CO2, 100% humidity for 30 minutes. Goat F(ab′)2 anti-human IgM (10 μl of a 500 μg/ml solution, 50 μg/ml final) is added to each well (except the no-stimulus wells) with mixing and the plates are incubated for an additional 20 hours. At the end of the 20 hour incubation, samples are incubated with fluorescent labeled antibodies for 30 minutes, at 37° C., 5% CO2, 100% humidity. Include induced control, unstained and single stains for compensation adjustments and initial voltage settings. Samples are then lysed with PharM Lyse™ (BD Biosciences Pharmingen) according to the manufacturer's instructions. Samples are then transferred to a 96 well plate suitable to be run on the BD Biosciences HTS 96 well system on the LSRII machine. Data acquired and Mean Fluorescence Intensity values were obtained using BD Biosciences DIVA Software. Results are initially analyzed by FACS analysis software (Flow Jo). […] The IC50 values are calculated by Prism version 5, using a nonlinear regression curve fit.

[2] = test system: CD86 surface expression on CD19+/7AAD- mouse splenocytes stimulated with IgM; experiment: CD86 Inhibition Assay; assay type: cell-based; conditions: Splenocyte; total mouse splenocytes (Balb/c), IgM stimulation 24 hr
Description: Following the 24 hr incubation, cells are transferred to conical bottom clear 96-well plates and pelleted by centrifugation at 1200×g×5 min. […] Cells are sorted on a BD FACSCalibur and gated on the CD19^+/7AAD^− population. The levels of CD86 surface expression on the gated population is measured versus test compound concentration.

Btk = Btk (Homo sapiens (Human), UniProt Q06187); experiment: standard biochemical Btk Kinase Assay (Example 901)
Chain of Btk (Q06187 whole entry): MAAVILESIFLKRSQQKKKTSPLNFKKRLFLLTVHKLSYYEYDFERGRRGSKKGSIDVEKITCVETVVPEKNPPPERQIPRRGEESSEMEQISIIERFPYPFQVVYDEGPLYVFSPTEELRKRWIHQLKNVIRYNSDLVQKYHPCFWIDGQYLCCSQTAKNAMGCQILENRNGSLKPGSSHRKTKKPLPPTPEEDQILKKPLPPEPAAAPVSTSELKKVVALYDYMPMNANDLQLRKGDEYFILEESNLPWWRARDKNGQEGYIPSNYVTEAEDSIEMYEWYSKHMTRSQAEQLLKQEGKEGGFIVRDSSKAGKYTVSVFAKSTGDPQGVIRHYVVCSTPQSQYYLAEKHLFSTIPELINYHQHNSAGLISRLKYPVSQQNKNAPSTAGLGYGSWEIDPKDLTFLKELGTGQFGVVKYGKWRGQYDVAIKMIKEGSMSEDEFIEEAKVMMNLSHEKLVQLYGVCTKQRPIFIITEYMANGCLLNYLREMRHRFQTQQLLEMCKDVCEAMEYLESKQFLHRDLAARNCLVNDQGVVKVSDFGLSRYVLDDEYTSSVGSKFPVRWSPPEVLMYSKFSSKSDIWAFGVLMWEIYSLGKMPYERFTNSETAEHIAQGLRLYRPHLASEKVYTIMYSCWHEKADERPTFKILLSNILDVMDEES
Excerpt: Determination of IC50 values can be accomplished using conventional techniques known in the art. In general, an IC50 can be determined by measuring the activity of a given enzyme in the presence of a range of concentrations of the inhibitor under study. The experimentally obtained values of enzyme activity then are plotted against the inhibitor concentrations used. […] Analogously, other inhibitory concentrations can be defined through appropriate determinations of activity.

SMILES	melting point	EC50 [2]	also measured
CN1CCCC1c1ccc(Nc2cc(-c3cc(F)cc(N4CCc5c(sc6c5CCCC6)C4=O)c3CO)cn(C)c2=O)nc1 (stereo in doubt) [Example 313, 5-[5-Fluoro-2-(hydroxymethyl)-3-(1-methyl-5-{[5-(2S)-(1-methylpyrrolidin-2-yl)pyridine-2-yl]amino}-6-oxo-1,6-dihydropyridin-3-yl)phenyl]-8-thia-5-azatricyclo[7.4.0.0^2,7]trideca-1(9),2(7)-dien-6-one]	–	6 nM	IC50 [1]: 44 nM
CN1CCN(c2ccc(Nc3cc(-c4cccc(N5CCn6c(cc7c6CCCC7)C5=O)c4CO)cn(C)c3=O)nc2)CC1 [Example 113, 2-(2-(hydroxymethyl)-3-(1-methyl-5-(5-(4-methylpiperazin-1-yl)pyridine-2-ylamino)-6-oxo-1,6-dihydropyridin-3-yl)phenyl)-3,4,6,7,8,9-hexahydropyrazino[1,2-a]indol-1(2H)-one]	–	21 nM	IC50 (Btk; Table 1): 5 nM
Cn1cc(-c2cccc(N3CCc4c(sc5c4CC(C)(C)C5)C3=O)c2CO)nc(Nc2cccnc2)c1=O [Example 193, 5-(2-(Hydroxymethyl)-3-(6,6-dimethyl-3,4,6,7-tetrahydro-5H-cyclopenta[4,5]thieno[2,3-c]pyridine-1(2H)-yl))-1-methyl-3-(pyridin-3-ylamino)pyrazin-2(1H)-one]	135 to 136 °C	–	–
CN1CCN(c2ccc(Nc3cc(-c4cc(F)cc(N5CCn6c(cc7c6CCCC7)C5=O)c4CO)cn(C)c3=O)nc2)CC1 [Example 197, 2-(5-fluoro-2-(hydroxymethyl)-3-(1-methyl-5-(5-(4-methylpiperazin-1-yl)pyridin-2-ylamino)-6-oxo-1,6-dihydropyridin-3-yl)phenyl)-3,4,6,7,8,9-hexahydropyrazino[1,2-a]indol-1(2H)-one]	–	22 nM	IC50 [1]: 23 nM
Cc1cc(Nc2cc(-c3cccc(N4CCc5c(cc6n5CCCC6)C4=O)c3CO)cn(C)c2=O)n[nH]1 [Example 225, 2-(2-(Hydroxymethyl)-3-(1-methyl-5-(5-methyl-1H-pyrazol-3-ylamino)-6-oxo-1,6-dihydropyridin-3-yl)phenyl)-3,4,6,7,8,9-hexahydropyrido[3,4-b]indolizin-1(2H)-one]	199 to 200 °C	–	–
Cn1cc(-c2cccc(N3CCc4c(cc5n4CCCC5)C3=O)c2CO)cc(Nc2ccc(C3CNC3)cn2)c1=O [Example 227, 2-(3-(5-(5-(Azetidin-3-yl)pyridin-2-ylamino)-1-methyl-6-oxo-1,6-dihydropyridin-3-yl)-2-(hydroxymethyl)phenyl)-3,4,6,7,8,9-hexahydropyrido[3,4-b]indolizin-1(2H)-one]	227 to 229 °C	–	–
Cn1cc(-c2cc(F)cc(N3CCn4c(cc5c4CC(C)(C)C5)C3=O)c2CO)cc(Nc2ccc(N3CCN(CCF)CC3)cn2)c1=O [Example 273, 10-{5-Fluoro-3-[5-({5-[4-(2-fluoroethyl)piperazin-1-yl]pyridine-2-yl}amino)-1-methyl-6-oxo-1,6-dihydropyridin-3-yl]-2-(hydroxymethyl)phenyl}-4,4-dimethyl-1,10-diazatricyclo[6.4.0.0^2,6]dodeca-2(6),7-dien-9-one]	–	3 nM	IC50 (Btk; Table 2): 6.35 nM
CN1CCN(c2ccc(Nc3cc(-c4cccc(N5CCc6c(cc7n6CCCC7)C5=O)c4CO)cn(C)c3=O)nc2)CC1 [Example 275, 2-(2-(Hydroxymethyl)-3-(1-methyl-5-(5-(4-methylpiperazin-1-yl)pyridin-2-ylamino)-6-oxo-1,6-dihydropyridin-3-yl)phenyl)-3,4,6,7,8,9-hexahydropyrido[3,4-b]indolizin-1(2H)-one]	180 to 181 °C	–	IC50 (Btk; Table 2): 16.3 nM
CCN1CCc2nc(Nc3cc(-c4cc(F)cc(N5CCn6c(cc7c6CC(C)(C)C7)C5=O)c4CO)cn(C)c3=O)ccc2C1 [Example 284, 10-(3-{5-[(6-Ethyl-5,6,7,8-tetrahydro-1,6-naphthyridin-2-yl)amino]-1-methyl-6-oxo-1,6-dihydropyridin-3-yl}-5-fluoro-2-(hydroxymethyl)phenyl)-4,4-dimethyl-1,10-diazatricyclo[6.4.0.0^2,6]dodeca-2(6),7-dien-9-one]	–	6 nM	IC50 (Btk; Table 2): 2.8 nM
CCN1CCn2nc(Nc3cc(-c4cc(F)cc(N5CCn6c(cc7c6CC(C)(C)C7)C5=O)c4CO)cn(C)c3=O)cc2C1 [Example 285, 10-{3-[5-({5-Ethyl-4H,5H,6H,7H-pyrazolo[1,5-a]pyrazin-2-yl}amino)-1-methyl-6-oxo-1,6-dihydropyridin-3-yl]-5-fluoro-2-(hydroxymethyl)phenyl}-4,4-dimethyl-1,10-diazatricyclo[6.4.0.0^2,6]dodeca-2(6),7-dien-9-one]	–	11 nM	IC50 (Btk; Table 2): 3.6 nM
CN(C)CCN(C)c1ccc(Nc2cc(-c3cc(F)cc(N4CCc5c(sc6c5CCCC6)C4=O)c3CO)cn(C)c2=O)nc1 [Example 286, 2-(3-(5-(5-((2-(Dimethylamino)ethyl)(methyl)amino)pyridin-2-ylamino)-1-methyl-6-oxo-1,6-dihydropyridin-3-yl)-5-fluoro-2-(hydroxymethyl)phenyl)-3,4,5,6,7,8-hexahydrobenzothieno[2,3-c]pyridin-1(2H)-one]	122 to 123 °C	4 nM	–
CN(Cc1cc(Nc2cc(-c3cc(F)cc(N4CCc5c(sc6c5CCCC6)C4=O)c3CO)cn(C)c2=O)nn1C)C1COC1 [Example 324, 5-[5-Fluoro-2-(hydroxymethyl)-3-{1-methyl-5-[(1-methyl-5-{[methyl(oxetan-3-yl)amino]methyl}-1H-pyrazol-3-yl)amino]-6-oxo-1,6-dihydropyridin-3-yl}phenyl]-8-thia-5-azatricyclo[7.4.0.0^2,7]trideca-1(9),2(7)-dien-6-one]	–	–	IC50 [1]: 53 nM
CN1CCC(c2ccc(Nc3cc(-c4cccc(N5CCc6c(sc7c6CC(C)(C)C7)C5=O)c4CO)cn(C)c3=O)nc2)CC1 [Example 325, 10-[2-(Hydroxymethyl)-3-(1-methyl-5-{[5-(1-methylpiperidin-4-yl)pyridine-2-yl]amino}-6-oxopyridin-3-yl)phenyl]-4,4-dimethyl-7-thia-10-azatricyclo[6.4.0.0^2,6]dodeca-1(8),2(6)-dien-9-one]	–	–	IC50 [1]: 24 nM
COCc1c(-c2cc(Nc3ccc(N4CCN(C)CC4)cn3)c(=O)n(C)c2)cc(F)cc1N1CCn2c(cc3c2CCCC3)C1=O [Example 343, 2-{5-fluoro-2-(methoxymethyl)-3-(1-methyl-5-(5-(4-methylpiperazin-1-yl)pyridin-2-ylamino)-6-oxo-1,6-dihydropyridin-3-yl)phenyl)-3,4,6,7,8,9-hexahydropyrazino[1,2-a]indol-1(2H)-one]	–	–	IC50 [1]: 53 nM
CN1CCN(c2ccc(Nc3cc(-c4cc(F)cc(N5CCn6c(cc7c6CCCC7)C5=O)c4CO)cn(C)c3=O)nc2)C(=O)C1 [Example 345, 2-(5-fluoro-2-(hydroxymethyl)-3-(1-methyl-5-(5-(4-methyl-2-oxopiperazin-1-yl)pyridin-2-ylamino)-6-oxo-1,6-dihydropyridin-3-yl)phenyl)-3,4,6,7,8,9-hexahydropyrazino[1,2-a]indol-1(2H)-one]	–	–	IC50 [1]: 24 nM

More lines, main results first:

melting point	EC50 [2]	SMILES	also measured
164 to 166 °C	–	CN1CCCC1c1ccc(Nc2cc(-c3cc(F)cc(N4CCc5c(sc6c5CCCC6)C4=O)c3CO)cn(C)c2=O)nc1 (centres unmarked)	–
167 to 168 °C	–	Cn1cc(-c2cccc(N3CCc4c(sc5c4CC(C)(C)C5)C3=O)c2CO)cc(Nc2cc3n(n2)CCOC3)c1=O [Example 183]	–
170 to 171 °C	–	Cn1cc(-c2cccc(-n3ccc4c5c(sc4c3=O)CC(C)(C)C5)c2CO)cc(Nc2ccncn2)c1=O [Example 203, 5-(3-(6,6-Dimethyl-5,7-dihydro-5H-cyclopenta[4,5]thieno[2,3-c]pyridine-1(2H)-yl)-2-(hydroxymethyl)phenyl)-1-methyl-3-(pyrimidin-4-ylamino)pyridin-2(1H)-one]	–
143 to 145 °C	–	CN1CCN(c2ccc(Nc3cc(-c4cc(F)cc(N5CCc6c(sc7c6CC(C)(C)C7)C5=O)c4CO)cn(C)c3=O)nc2)CC1 [Example 204]	–
175 to 177 °C	–	Cn1cc(-c2cc(F)cc(N3CCc4c(sc5c4CC(C)(C)C5)C3=O)c2CO)cc(Nc2ccc(N3CCN(C4COC4)CC3)cn2)c1=O [Example 237]	–
191 to 192 °C	–	CC(C)N1CCN(c2ccc(Nc3cc(-c4cc(F)cc(N5CCc6c(sc7c6CC(C)(C)C7)C5=O)c4CO)cn(C)c3=O)nc2)CC1 [Example 239]	–
